Broadly, the IC50 is the concentration at which inhibition is half-maximal.

The target in one experiment is human P2X7 receptor (Homo sapiens, UniProt Q99572, R270H/Y155H). Put plainly: Evaluation of human P2X7 receptor inhibitory activity (Yo-Pro uptake, BzATP stimulation, FLIPR TETRA). To be noted: 1321N1 cells stably expressing human P2X7 receptor; BzATP stimulation, Yo-Pro uptake; read-out: IC50 (antagonistic activity for the human P2X7 receptor). It is filed as cell-based. Summed up: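 Yo-Pro dye uptake triggered by BzATP was monitored by FLIPR in human P2X7-transfected 1321N1 cells (SNP variant) in HEPES-buffered HBSS, pH 7.4-7.5. Compound was dispensed 8 min post-stimulation, then signal read for 20 min; IC50 derived logistically from inhibition of the fluorescence range.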
For `COc1cn(Cc2ccccc2)c(Nc2cc3nc(C)sc3cc2C)nc1=O` [Compound I-0744], the half-inhibitory concentration (IC50) amounted to 180 nM.

Take `COc1cnc(Nc2cc(N3CCCC3=O)ccc2C)n(Cc2ccc(F)c(Cl)c2)c1=O` [Compound I-0986]: the IC50 was 24 nM.

Regarding `CCOC(=O)c1cn(Cc2ccccc2)c(Nc2cc(C)c(C)cc2C)nc1=O` [Compound I-0196], the half-inhibitory concentration (IC50) worked out at 13 nM.

Turning to `C=Cc1ccccc1Nc1nc(=O)c(F)cn1Cc1cc(F)c(F)c(F)c1` [Compound I-1188], the 50% inhibitory concentration (IC50) is 4 nM.

For `CCc1cc2c(cc1Nc1nc(=O)c(F)cn1Cc1ccc(F)cc1)CCC2` [Compound I-0186], the IC50 was 2 nM.

In the case of `COc1cn(Cc2ccccc2)c(Nc2cc3[nH]ccc3cc2C)nc1=O` [Compound I-0618], the IC50 is 7 nM.

`CCOc1cc(C)c(Nc2nc(=O)c(OC)cn2Cc2cc(F)cc(Cl)c2)cc1C` [Compound I-0384]: the half-maximal inhibitory concentration (IC50) was 10 nM.

On to `COc1cn(Cc2ccccc2)c(NC2C[C@@H]3CC[C@H]2C3)nc1=O` (some centres unmarked) [Compound I-0042], for which the IC50 was found to be 830 nM.

With `COc1cn(Cc2ccc(F)c(Cl)c2)c(N[C@@H]2CCCc3ccccc32)nc1=O` [Compound I-0336], the half-inhibitory concentration (IC50) is 120 nM.

On to `Cc1ccc(C)c(Nc2nc(=NO)c(F)cn2Cc2cc(F)c(F)c(F)c2)c1` [Compound I-1290], for which the 50% inhibitory concentration (IC50) amounted to 21 nM.

The same experiment, now with this note: 1321N1 cells stably expressing human P2X7 receptor; BzATP stimulation, Yo-Pro uptake; read-out: IC50 (antagonistic activity for the human P2X7 receptor), class symbol.
As for `COc1cn(Cc2cc(F)cc(F)c2)c(Nc2cc3c(cc2C)COC3)nc1=O` [Compound I-0003], the half-maximal inhibitory concentration (IC50) was less than 10 nM.

As to `Cc1c(Cl)cccc1Nc1nc(=O)c(C(=O)OC(C)(C)C)cn1Cc1ccccc1` [Compound I-0111], the IC50 was in the range of 100 to 500 nM.

`Cc1cc(C)c(Nc2nc(=O)c(C(=O)NC3CCOCC3)cn2Cc2ccccc2)cc1C` [Compound I-0219]: the IC50 was in the range of 10 to 100 nM.

For the compound `COc1cn(Cc2cc(F)cc(F)c2)c(Nc2cccc(C(F)(F)F)c2C)nc1=O` [Compound I-0470], the IC50 is 10 to 100 nM.

`COc1cn(Cc2ccc(F)c(F)c2)c(Nc2cccc3[nH]c(C)cc23)nc1=O` [Compound I-0488]: the half-inhibitory concentration (IC50) lay in the range of 10 to 100 nM.

As to `Cc1cccc(Nc2nc(=O)c(F)cn2Cc2ccccc2)c1C` [Compound I-0128], the half-inhibitory concentration (IC50) lay in the range of 10 to 100 nM.

As to `Cc1cc(C)c(Nc2nc(=O)c(C(=O)NCc3ccccc3)cn2Cc2ccccc2)cc1C` [Compound I-0284], the IC50 was in the range of 500 to 1000 nM.

As to `Cc1cc(C)c(Nc2nc(=O)c(F)cn2Cc2ccc(F)cc2)cc1C` [Compound I-0306], the IC50 is less than 10 nM.

`CCc1cc2c(cc1Nc1nc(=O)c(OC)cn1Cc1cccc(Cl)c1)CCC2` [Compound I-0164]: the IC50 was less than 10 nM.

With `COc1cn(Cc2ccccc2COC(F)F)c(Nc2cccc(Cl)c2C)nc1=O` [Compound I-0463], the concentration for half-maximal inhibition (IC50) was less than 10 nM.

With `COc1cc(C)c(Nc2nc(=O)c(OC)cn2Cc2ccccc2)cc1C` [Compound I-0220], the IC50 is less than 10 nM.

Consider `COc1cn(Cc2ccccc2)c(Nc2cc(C)ccc2Cl)nc1=O` [Compound I-0146], for which the IC50 is 10 to 100 nM.

Consider `Cc1cc(C)c(Nc2nc(=O)c(Cl)cn2Cc2ccccc2)cc1C` [Compound I-0307], for which the IC50 was less than 10 nM.

Regarding `CCc1ccccc1Nc1nc(=O)c(OC)cn1Cc1ccc(Cl)c(F)c1` [Compound I-0225], the half-maximal inhibitory concentration (IC50) is 100 to 500 nM.

`COCCNC(=O)c1cn(Cc2ccccc2)c(Nc2cccc(Cl)c2C)nc1=O` [Compound I-0076]: the half-maximal inhibitory concentration (IC50) was 100 to 500 nM.

`COc1cc(C)c(Nc2nc(=O)c(OC)cn2Cc2cc(F)cc(Cl)c2)cc1OC` [Compound I-0469]: the half-inhibitory concentration (IC50) was less than 10 nM.

Take `COc1cn(Cc2ccc(F)c(Cl)c2)c(Nc2cccc(Cl)c2C)nc1=O` [Compound I-0166]: the concentration for half-maximal inhibition (IC50) is less than 10 nM.

On to `CCc1cc(OC)c(OC)cc1Nc1nc(=O)c(OC)cn1Cc1ccccc1` [Compound I-0256], for which the 50% inhibitory concentration (IC50) is less than 10 nM.

Take `COc1cn(Cc2cccc(Cl)c2)c(Nc2cc(C)c(Cl)cc2C)nc1=O` [Compound I-0172]: the half-inhibitory concentration (IC50) was 10 to 100 nM.

For the compound `COc1cn(Cc2ccccc2)c(Nc2cc3[nH]ncc3cc2C)nc1=O` [Compound I-0221], the IC50 lay within 10 to 100 nM.

Regarding `COc1cn(Cc2ccccc2Cl)c(Nc2cc(C)c(C)cc2C)nc1=O` [Compound I-0192], the half-inhibitory concentration (IC50) lay within 10 to 100 nM.

On to `Cc1c(Cl)cccc1Nc1nc(=O)ccn1Cc1ccccc1` [Compound I-0009], for which the IC50 was less than 10 nM.

For the compound `CCc1ccc(Cl)cc1Nc1nc(=O)c(OC)cn1Cc1cccc(Cl)c1` [Compound I-0387], the half-inhibitory concentration (IC50) lay in the range of 10 to 100 nM.

As to `COc1cn(Cc2ccccc2)c(Nc2ccccc2Cc2ccccc2)nc1=O` [Compound I-0118], the IC50 lay in the range of 10 to 100 nM.

Turning to `CCc1cc(OC)c(OC)cc1Nc1nc(=O)c(F)cn1Cc1ccccc1` [Compound I-0266], the IC50 was less than 10 nM.

Still in this experiment, the particulars now being: antagonistic activity for the human P2X7 receptor; read-out: IC50.
For `Cc1cc(N(C)C)ccc1Nc1nc(=O)c(F)cn1Cc1cc(F)cc(F)c1` [Compound I-1241], the half-inhibitory concentration (IC50) is less than 10 nM.

With `COc1cc(Nc2nc(=O)c(F)cn2Cc2cc(F)c(F)c(F)c2)c(C)nc1OC` [Compound I-1235], the IC50 is less than 10 nM.

With `COc1cc(C)c(Nc2nc(=NC#N)c(OC)cn2Cc2cc(F)c(F)c(F)c2)cc1OC` [Compound I-1287], the IC50 was 10 to 100 nM.

In the case of `Cc1cc(Nc2nc(=O)c(F)cn2Cc2cc(F)cc(F)c2)c2cc[nH]c2c1` [Compound I-0705], the half-inhibitory concentration (IC50) was less than 10 nM.

`COc1cn(Cc2ccccc2)c(Nc2cc(C)c(OC(F)(F)F)cc2C)nc1=O` [Compound I-0922]: the IC50 was less than 10 nM.

Turning to `COc1cn(Cc2ccccc2)c(Nc2cc(C)c(OC(F)F)cc2C)cc1=O` [Compound I-0951], the IC50 lay in the range of 100 to 500 nM.

With `Cc1nc2cc(Cl)c(Nc3nc(=O)c(F)cn3Cc3cc(F)c(F)c(F)c3)cc2s1` [Compound I-1182], the half-maximal inhibitory concentration (IC50) was less than 10 nM.

Take `COc1ccc(Nc2nc(=O)c(C)nn2Cc2cc(F)c(F)c(F)c2)c(C)c1` [Compound I-1277]: the IC50 is less than 10 nM.

On to `COc1cc(C)c(Nc2nc(=O)c(Cl)nn2Cc2cc(F)c(F)c(F)c2)cc1OC` [Compound I-1264], for which the IC50 is less than 10 nM.

In the case of `COc1cn(Cc2ccc(F)c(Cl)c2)c(Nc2c(C)ccc(C)c2F)nc1=O` [Compound I-0927], the IC50 is less than 10 nM.

As for `COc1cn(Cc2cc(F)c(F)c(F)c2)c(Nc2ccc3c(c2C)COC3)nc1=O` [Compound I-0911], the half-maximal inhibitory concentration (IC50) lay in the range of 10 to 100 nM.

Turning to `Cc1ccc(C)c(Nc2nc(=O)c(F)cn2Cc2cc(F)c(F)c(F)c2)c1` [Compound I-1194], the IC50 is less than 10 nM.

`COc1ccc(C)c(Nc2nc(=O)c(C#N)cn2Cc2cc(F)c(F)c(F)c2)c1` [Compound I-1151]: the IC50 was in the range of 10 to 100 nM.

Take `COCc1cn(Cc2cc(F)c(F)c(F)c2)c(Nc2cc3sc(C)nc3cc2C)nc1=O` [Compound I-1141]: the IC50 fell in the range of 10 to 100 nM.

As for `COc1ccc(Nc2nc(=O)cnn2Cc2cc(F)cc(Cl)c2)c(C)c1` [Compound I-1269], the IC50 lay within 10 to 100 nM.

For `Cc1cn(Cc2cc(F)cc(F)c2)c(Nc2ccc3[nH]ccc3c2C)nc1=O` [Compound I-1164], the IC50 is less than 10 nM.

On to `COc1cc(C)c(Nc2nc(=O)c(CO)nn2Cc2cc(F)c(F)c(F)c2)cc1OC` [Compound I-1256], for which the half-inhibitory concentration (IC50) fell in the range of 10 to 100 nM.

On to `COc1cn(Cc2ccc(F)c(Cl)c2)c(Nc2cc(Oc3ccccn3)ccc2C)nc1=O` [Compound I-0896], for which the IC50 was less than 10 nM.

Regarding `CCOc1cn(Cc2ccccc2)c(Nc2cc(OC)c(OC)cc2C)nc1=O` [Compound I-0759], the IC50 fell in the range of 10 to 100 nM.

On to `COc1cc(C)c(Nc2nc(=O)c(F)cn2Cc2cc(F)c(F)c(F)c2)cc1F` [Compound I-1087], for which the IC50 was less than 10 nM.

Take `CCOC(=O)c1cn(Cc2ccc(F)c(F)c2)c(Nc2cc(C)c(OC)cc2C)nc1=O` [Compound I-1109]: the IC50 was less than 10 nM.

For `CCc1cc2c(cc1Nc1nc(=O)c(OC)cn1Cc1ccccc1)OCCO2` [Compound I-0796], the half-inhibitory concentration (IC50) was 10 to 100 nM.

As for `COc1cn(Cc2cc(F)cc(Cl)c2)c(Nc2cc(-c3cscn3)ccc2C)nc1=O` [Compound I-0752], the IC50 lay in the range of 10 to 100 nM.

On to `COc1cn(Cc2ccc(F)c(Cl)c2)c(Nc2cc3c(cc2C)OC(F)(F)O3)nc1=O` [Compound I-0727], for which the half-maximal inhibitory concentration (IC50) lay in the range of 100 to 500 nM.

On to `COc1cn(Cc2cc(F)cc(Cl)c2)c(Nc2cc3c(cc2C)OCCO3)nc1=O` [Compound I-0710], for which the IC50 is 10 to 100 nM.

Take `CCOc1cc(Nc2nc(=O)c(OC)cn2Cc2cc(F)cc(F)c2)c(C)cc1F` [Compound I-0920]: the IC50 is 10 to 100 nM.

For the compound `COc1cc(Cl)c(Nc2nc(=O)c(F)cn2Cc2cc(F)c(F)c(F)c2)cc1F` [Compound I-1239], the half-inhibitory concentration (IC50) was less than 10 nM.

Regarding `COCc1cc(=O)nc(Nc2cc(OC)c(OC)cc2C)n1Cc1cc(F)c(F)c(F)c1` [Compound I-1147], the IC50 was 10 to 100 nM.

For `COc1cn(Cc2cc(F)cc(Cl)c2)c(Nc2cc3ncccc3cc2C)nc1=O` [Compound I-0773], the half-maximal inhibitory concentration (IC50) fell in the range of 100 to 500 nM.

As for `Cc1ccc(CO)cc1Nc1nc(=O)c(F)cn1Cc1ccc(F)c(F)c1` [Compound I-1012], the concentration for half-maximal inhibition (IC50) was less than 10 nM.

In the case of `Cc1ccc(CO)cc1Nc1nc(=O)c(F)cn1Cc1cc(F)c(F)c(F)c1` [Compound I-1015], the concentration for half-maximal inhibition (IC50) was less than 10 nM.

In the case of `COc1cn(Cc2cc(F)cc(Cl)c2)c(Nc2cc(S(C)(=O)=O)cc(C)c2C)nc1=O` [Compound I-0757], the half-maximal inhibitory concentration (IC50) was in the range of 10 to 100 nM.

With `COc1cn(Cc2ccc(F)c(F)c2)c(Nc2cc(C(C)(C)O)ccc2C)nc1=O` [Compound I-0732], the IC50 was 10 to 100 nM.

For the compound `COc1cc(Nc2nc(=O)c(OC)cn2Cc2ccc(F)c(Cl)c2)c(C)cc1F` [Compound I-0686], the IC50 is less than 10 nM.

Turning to `COc1cc(C)c(Nc2nc(=O)c(F)cn2Cc2cc(F)cc(F)c2)cc1Cl` [Compound I-1174], the concentration for half-maximal inhibition (IC50) is less than 10 nM.

Take `COc1cc(Nc2nc(=O)c(F)cn2Cc2ccc(F)c(Cl)c2)c(C)cc1F` [Compound I-1051]: the half-maximal inhibitory concentration (IC50) is less than 10 nM.

For the origin of these results see US10774051B2, “6-membered heterocyclic derivatives and pharmaceutical composition comprising the same” (Shionogi & Co., Ltd., priority 2015, dated 2020).
